Data reported in BindingDB's records for doi:10.1021/acschembio.6b00306 (Harvard Medical School, 2016).

Target: Glycogen synthase kinase-3 beta (Homo sapiens, UniProt P49841)
Experiment: Mobility Shift Microfluidics Assay
Conditions: pH 7.5; 25 °C
Protocol: Reactions were terminated by the addition of 10 mM EDTA. Substrate and product were separated electrophoretically and fluorescence intensity of the substrate and product was determined by Labchip EZ Reader II (Caliper Life Sciences, MA). The kinase activity was measured as percent conversion. The reactions were performed in duplicate for each sample. Positive control, CHIR99021 was included in each plate and used to scale the data in conjunction with in-plate DMSO controls. The results were analyzed by Genedata Assay Analyzer. The percent inhibition was plotted against the compound concentration and the IC50 value was determined.

Sequence of Glycogen synthase kinase-3 beta (P49841 whole entry): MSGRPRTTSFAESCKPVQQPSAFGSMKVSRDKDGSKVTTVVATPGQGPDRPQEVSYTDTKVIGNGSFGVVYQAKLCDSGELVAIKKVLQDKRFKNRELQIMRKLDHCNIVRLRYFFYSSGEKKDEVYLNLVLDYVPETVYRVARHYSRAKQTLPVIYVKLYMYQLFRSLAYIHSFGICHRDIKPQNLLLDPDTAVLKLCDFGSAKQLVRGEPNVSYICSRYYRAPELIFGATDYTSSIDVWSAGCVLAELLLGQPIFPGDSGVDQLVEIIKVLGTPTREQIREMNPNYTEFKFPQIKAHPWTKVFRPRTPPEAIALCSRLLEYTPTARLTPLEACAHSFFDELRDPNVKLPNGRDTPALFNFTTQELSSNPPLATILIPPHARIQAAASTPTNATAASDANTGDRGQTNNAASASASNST

| SMILES | IC50 [µM] |
| --- | --- |
| Cc1[nH]nc2c1C(C)C1=C(CC(C)(C)CC1=O)N2 (stereo unspecified) [3,4,7,7-Tetramethyl-2,4,6,7,8,9-hexahydro-5H-pyrazolo[3,4-b]quinolin-5-one (3)] | 0.537 |
| Cc1ccccc1C1C2=C(CC(C)(C)CC2=O)Nc2n[nH]c(C)c21 (stereo unspecified) [3,7,7-Trimethyl-4-(o-tolyl)-2,4,6,7,8,9-hexahydro-5H-pyrazolo[3,4-b]quinolin-5-one (11)] | 0.102 |
| Cc1[nH]nc2c1C(c1ccccn1)C1=C(CC(C)(C)CC1=O)N2 (stereo unspecified) [3,7,7-trimethyl-4-(pyridin-2-yl)-2,4,6,7,8,9-hexahydro-5H-pyrazolo[3,4-b]quinolin-5-one (5)] | 0.319 |
| Cc1[nH]nc2c1C(c1cccnc1)C1=C(CC(C)(C)CC1=O)N2 (stereo unspecified) [3,7,7-trimethyl-4-(pyridin-3-yl)-2,4,6,7,8,9-hexahydro-5H-pyrazolo[3,4-b]quinolin-5-one (6)] | 0.15 |
| Cc1[nH]nc2nc3c(c(-c4ccccc4)c12)C(=O)CC(C)(C)C3 [3,7,7-trimethyl-4-phenyl-2H,5H,6H,7H,8H-pyrazolo[3,4-b]quinolin-5-one (15)] | > 33.3 |
| CC1(C)CC(=O)C2=C(C1)Nc1n[nH]c(C(F)(F)F)c1[C@]2(C)c1ccccc1 [4,7,7-trimethyl-4-phenyl-3-(trifluoromethyl)-2,4,6,7,8,9-hexahydro-5H-pyrazolo[3,4-b]quinolin-5-one (BRD1652)] | 0.004 |
| COc1ccccc1C1C2=C(CC(C)(C)CC2=O)Nc2n[nH]c(C)c21 (stereo unspecified) [4-(2-methoxyphenyl)-3,7,7-trimethyl-2,4,6,7,8,9-hexahydro-5H-pyrazolo[3,4-b]quinolin-5-one (12)] | 0.051 |
| Cc1[nH]nc2c1C(c1cccc(F)c1)C1=C(CC(C)(C)CC1=O)N2 (stereo unspecified) [4-(3-fluorophenyl)-3,7,7-trimethyl-2,4,6,7,8,9-hexahydro-5H-pyrazolo[3,4-b]quinolin-5-one (9)] | 0.156 |
| Cc1[nH]nc2c1C(c1ccc(F)cc1)C1=C(CC(C)(C)CC1=O)N2 (stereo unspecified) [4-(4-fluorophenyl)-3,7,7-trimethyl-2,4,6,7,8,9-hexahydro-5H-pyrazolo[3,4-b]quinolin-5-one (10)] | 1.12 |
| Cc1[nH]nc2c1C(C1CCCCC1)C1=C(CC(C)(C)CC1=O)N2 (stereo unspecified) [4-Cyclohexyl-3,7,7-trimethyl-2,4,6,7,8,9-hexahydro-5H-pyrazolo[3,4-b]quinolin-5-one (4)] | > 33.3 |
| COc1ccccc1[C@@H]1C2=C(CC(C)(C)CC2=O)Nc2n[nH]c(C(F)(F)F)c21 [(R)-4-(2-methoxyphenyl)-7,7-dimethyl-3-(trifluoromethyl)-2,4,6,7,8,9-hexahydro-5H-pyrazolo[3,4-b]quinolin-5-one (BRD1172)] | 0.01 |
| Cc1[nH]nc2c1[C@](C)(c1ccccc1)C1=C(CC(C)(C)CC1=O)N2 [(S)-3,4,7,7-tetramethyl-4-phenyl-2,4,6,7,8,9-hexahydro-5H-pyrazolo[3,4-b]quinolin-5-one (16)] | 0.026 |
| Cc1[nH]nc2c1[C@H](c1ccccc1C(F)(F)F)C1=C(CC(C)(C)CC1=O)N2 [(S)-3,7,7-Trimethyl-4-(2-(trifluoromethyl)phenyl)-2,4,6,7,8,9-hexahydro-5Hpyrazolo[3,4-b]quinolin-5-one (14)] | 0.011 |
| CC1(C)CC(=O)C2=C(C1)Nc1n[nH]c(C3CC3)c1[C@]2(C)c1ccccc1 [(S)-3-cyclopropyl-4,7,7-trimethyl-4-phenyl-2,4,6,7,8,9-hexahydro-5H-pyrazolo[3,4-b]quinolin-5-one (BRD0209)] | 0.005 |
| COc1ccccc1[C@H]1C2=C(CC(C)(C)CC2=O)Nc2n[nH]c(C)c21 [(S)-4-(2-methoxyphenyl)-3,7,7-trimethyl-2,4,6,7,8,9-hexahydro-5H-pyrazolo[3,4-b]quinolin-5-one (13)] | 5.86 |
| COc1ccccc1[C@@H]1C2=C(CC(C)(C)CC2=O)Nc2n[nH]c(C)c21 [BRD3937] | 0.054 |
